The test system of the test is CFTR-Y122X. The experiment in a line: CFTR-Y122X assay (dual reporter isogenic Hek293 cell lines, Renilla luminescence readthrough). Type of test: cell-based. The following applies: Homo sapiens. The text has this:
Activity of compounds of the present invention was examined in recombinant, dual reporter isogenic Hek293 cell lines (“CFTR-Y122X assay”). The engineered reporter constructs contained the 18 bp sequence stretch corresponding to a common Y122X PTC mutation in CFTR class I mutant patients (see Sermet-Gaudelus, BMC Medicine, 2007, 5(5)). Instead of a tyrosine (Y) in position 122 of the CFTR protein a TGA stop codon interrupts the open reading frame (Y122X) of the corresponding mRNA. This TGA stop codon triplet (followed by the pyrimidine base cytosine) is permissive to aminoglycoside mediated translational readthrough which served as positive control for high throughput screening. A corresponding TAA stop codon variant and a wildtype non mutated construct was used for confirmation and counter screening. The CFTR sequence was sandwiched between an eGFP reporter, and a triple myc tag sequence fused to a full length Renilla reporter. All sequences, including an intron containing one positioned pre-eGFP (b-globin intron) were cloned in frame. The corresponding expression constructs were stably expressed in the isogenic HEK-R4 cell host (Invitrogen Incorp.) and selected by blasticidin resistance. The isogenic integration of the construct minimizes gene dose effects and improves assay reproducibility. Stably integrated single cell derived clones were selected and characterized for aminoglycoside mediated readthrough. […] Readthrough of Y122X accumulates an intracellular localized fusion protein approximately 65.5 kDa in size as controlled by western blot analysis and immunofluorescence using an anti-renilla antibody. The eGFP reporter pre-PTC mutation serves as visual control for genetic stability of the screening clones and minimizes protein degradation of small fusion protein amounts. In the assay, compound concentration was 10 μM. In miniaturized 1536 well format 2000 cells were dispensed in 4 μl/well and incubated for 24 h at 37° C., 5% CO2. 40 nl compounds were placed on the cells with control wells containing 1 ul Paramomycin and 14.4 mM final concentration. Compounds were incubated for 24 h. Renilla Glo substrate (2.5 ul) was added and plates were centrifuged and processed for luminescence measurement using various readers. Activity calculation was done using the equation: A1 (%)=100*(S−NC)/(AC−NC) where AC, NC and S correspond to active controls (injection of Stimulation buffer=100% stimulation), neutral controls (buffer injection which Iloprost EC10) and screening samples (S). NC corresponds to 0% activity whereas AC is 100% activity (14 mM paromomycin). False positive artefacts were removed in confirmation and validation screening using the same assay format followed by counterscreening using the respective wildtype construct (w/o PTC mutation) cell model. Compounds were tested up to 100 μM compound concentration.

[1] abbreviates: HEK293, at the above dose ranges (up to 100 μM), read-out: suppression, % of paromomycin reference activity.
Where [2] appears, read: HEK293, nonsense mutation suppression, 24 h incubation.
Setting [3] is: HEK293, nonsense mutation suppression, 100% = 14 mM paromomycin, 24 h incubation, tested up to 100 μM, read-out: Amax [%].

The structures appear in SMILES notation. Read-outs that look alike come from different tables or passages of the source.

Drawing on US9649314B2, “Pyrimido[4,5-b]quinoline-4,5(3H,10H)-diones” (NOVARTIS AG, priority 2012, dated 2017), this text covers Emax and AC50 for 28 molecules.

In the case of `Cn1c2ccccc2c(=O)c2c(=O)n(C3CCCCC3)c(C3CCCCC3)nc21` [2,3-dicyclohexyl-10-methylpyrimido[4,5-b]quinoline-4,5(3H,10H)-dione], under setting [1], the Emax was below 5%.
As for `Cn1c2ccccc2c(=O)c2c(=O)n(C3CCCCCC3)c(-c3ccc(C(C)(C)C)cc3)nc21` [2-(4-(tert-butyl)phenyl)-3-cycloheptyl-10-methylpyrimido[4,5-b]quinoline-4,5(3H,10H)-dione], the Emax under setting [1] is below 5%.
Still for that read-out and setting: for `Cn1c2ccccc2c(=O)c2c(=O)n(C3CCCCC3)c(-c3ccc(C(C)(C)C)cc3)nc21` [2-(4-(tert-butyl)phenyl)-3-cyclohexyl-10-methylpyrimido[4,5-b]quinoline-4,5(3H,10H)-dione] the value was below 5%; for `Cn1c2ccccc2c(=O)c2c(=O)n(C3CCCC3)c(-c3ccc(C(C)(C)C)cc3)nc21` [2-(4-(tert-butyl)phenyl)-3-cyclopentyl-10-methylpyrimido[4,5-b]quinoline-4,5(3H,10H)-dione], below 5%.
As for `Cn1c2ccccc2c(=O)c2c(=O)n(C3CCCCCC3)c(-c3ccc(Cl)cc3)nc21` [2-(4-chlorophenyl)-3-cycloheptyl-10-methylpyrimido[4,5-b]quinoline-4,5(3H,10H)-dione], the Emax under setting [1] was below 5%.
The same measure, in the same setting: in the case of `Cn1c2ccccc2c(=O)c2c(=O)n(C3CCCC3)c(-c3ccc(Cl)cc3)nc21` [2-(4-chlorophenyl)-3-cyclopentyl-10-methylpyrimido[4,5-b]quinoline-4,5(3H,10H)-dione] it was below 5%; in that of `Cc1cc(C)cc(-n2c(C3CCCCC3)nc3c(c(=O)c4ccccc4n3C)c2=O)c1` [2-cyclohexyl-3-(3,5-dimethylphenyl)-10-methylpyrimido[4,5-b]quinoline-4,5(3H,10H)-dione], below 5%.
Still for that read-out and setting: in the case of `CC(C)c1nc2c(c(=O)c3ccccc3n2C)c(=O)n1C1CCOC1` (stereo not shown) [2-isopropyl-10-methyl-3-(tetrahydrofuran-3-yl)pyrimido[4,5-b]quinoline-4,5(3H,10H)-dione] it was below 5%; in that of `CC(C)c1nc2c(c(=O)c3cc(C(F)(F)F)ccc3n2C)c(=O)n1-c1ccccc1` [2-isopropyl-10-methyl-3-phenyl-7-(trifluoromethyl)pyrimido[4,5-b]quinoline-4,5(3H,10H)-dione], below 5%.
As to `Cn1c2ccccc2c(=O)c2c(=O)n(-c3cccc(Cl)c3)c(C3CCCCC3)nc21` [3-(3-chlorophenyl)-2-cyclohexyl-10-methylpyrimido[4,5-b]quinoline-4,5(3H,10H)-dione], under setting [1], the Emax was below 5%.
With `Cn1c2ccccc2c(=O)c2c(=O)n(C3CCCCCC3)c(-c3ccc(Cl)cc3Cl)nc21` [3-cycloheptyl-2-(2,4-dichlorophenyl)-10-methylpyrimido[4,5-b]quinoline-4,5(3H,10H)-dione], the Emax under setting [1] was below 5%.
On to `Cn1c2ccccc2c(=O)c2c(=O)n(C3CCCCCC3)c(-c3ccccc3F)nc21` [3-cycloheptyl-2-(2-fluorophenyl)-10-methylpyrimido[4,5-b]quinoline-4,5(3H,10H)-dione], for which, under setting [1], the Emax is below 5%.
On to `Cn1c2ccccc2c(=O)c2c(=O)n(C3CCCCCC3)c(-c3ccc(F)cc3)nc21` [3-cycloheptyl-2-(4-fluorophenyl)-10-methylpyrimido[4,5-b]quinoline-4,5(3H,10H)-dione], for which, under setting [1], the Emax is below 5%.
For `Cn1c2ccccc2c(=O)c2c(=O)n(C3CCCCCC3)c(C3CCCCC3)nc21` [3-cycloheptyl-2-cyclohexyl-10-methylpyrimido[4,5-b]quinoline-4,5(3H,10H)-dione], the Emax under setting [1] is below 5%.
`Cn1c2ccccc2c(=O)c2c(=O)n(C3CCCCCC3)c(-c3ccc([N+](=O)[O-])cc3)nc21` [3-cycloheptyl-10-methyl-2-(4-nitrophenyl)pyrimido[4,5-b]quinoline-4,5(3H,10H)-dione]: the Emax under setting [1] was below 5%.
The same measure, in the same setting: in the case of `Cn1c2ccccc2c(=O)c2c(=O)n(C3CCCCC3)c(-c3ccc(Cl)cc3Cl)nc21` [3-cyclohexyl-2-(2,4-dichlorophenyl)-10-methylpyrimido[4,5-b]quinoline-4,5(3H,10H)-dione] it was below 5%.
Take `Cn1c2ccccc2c(=O)c2c(=O)n(C3CCCC3)c(C3CCCN(C4CCCC4)C3)nc21` (stereo not shown) [3-cyclopentyl-2-(1-cyclopentylpiperidin-3-yl)-10-methylpyrimido[4,5-b]quinoline-4,5(3H,10H)-dione]: under setting [1], the Emax was below 5%.
On the same count and under the same terms, for `CC(C)Cn1c2ccccc2c(=O)c2c(=O)n(-c3ccccc3)c(C(C)C)nc21` [10-isobutyl-2-isopropyl-3-phenylpyrimido[4,5-b]quinoline-4,5(3H,10H)-dione] the value was below 5%.
What is called AC50 is the midpoint of the concentration-response curve, whichever way the signal moves. A higher AC50 goes with weaker potency. As for `Cn1c2ccccc2c(=O)c2c(=O)n(-c3ccccc3)c(C3CCC3)nc21` [Example 1.1, 2-cyclobutyl-10-methyl-3-phenylpyrimido[4,5-b]quinoline-4,5(3H,10H)-dione], the Emax (HEK293, 24 h, read-out: Amax [%]) was 258%. For the same molecule, half-maximal activity under setting [2] (AC50) was put at 1.3 µM.
As to `C=CCn1c2ccccc2c(=O)c2c(=O)n(-c3ccccc3)c(C(C)C)nc21` [Example 1.2, 10-allyl-2-isopropyl-3-phenylpyrimido[4,5-b]quinoline-4,5(3H,10H)-dione], the Emax under setting [3] was found to be 63%.
As for `CC(C)c1nc2[nH]c3ccccc3c(=O)c2c(=O)n1-c1ccccc1` [Example 1.3, 2-isopropyl-3-phenylpyrimido[4,5-b]quinoline-4,5(3H,10H)-dione], under setting [3], the Emax was 279%. Besides, the AC50 under setting [2] amounted to 6.1 µM.
For `C=CCn1c2ccccc2c(=O)c2c(=O)n(-c3ccccc3)c(C3CCC3)nc21` [Example 1.4, 10-allyl-2-cyclobutyl-3-phenylpyrimido[4,5-b]quinoline-4,5(3H,10H)-dione], in that order: 279% and 4 µM.
On the same counts, the results for `O=c1c2ccccc2[nH]c2nc(C3CCC3)n(-c3ccccc3)c(=O)c12` [Example 1.5, 2-cyclobutyl-3-phenylpyrimido[4,5-b]quinoline-4,5(3H,10H)-dione] are 170% and 1.1 µM.
As to `CC1CC(c2nc3c(c(=O)c4ccccc4n3C)c(=O)n2-c2ccccc2)C1` (stereo not shown) [Example 1.6, 10-methyl-2-(3-methylcyclobutyl)-3-phenylpyrimido[4,5-b]quinoline-4,5(3H,10H)-dione], under setting [3], the Emax came to 165%. In addition, the AC50 under setting [2] came to 6.1 µM.
Take `Cn1c2ccccc2c(=O)c2c(=O)n(-c3ccccc3)c(C3CC(C)(C)C3)nc21` [Example 1.7, 2-(3,3-dimethylcyclobutyl)-10-methyl-3-phenylpyrimido[4,5-b]quinoline-4,5(3H,10H)-dione]: the Emax under setting [3] amounted to 7%. The AC50 under setting [2] turned out to be 3.8 µM.
For `COC1CC(c2nc3c(c(=O)c4ccccc4n3C)c(=O)n2-c2ccccc2)C1` (stereo not shown) [Example 1.8, 2-(3-methoxycyclobutyl)-10-methyl-3-phenylpyrimido[4,5-b]quinoline-4,5(3H,10H)-dione], in that order: 18% and 11.8 µM.
For `CCC(CC)c1nc2c(c(=O)c3ccccc3n2C)c(=O)n1-c1ccccc1` [Example 1.9, 10-methyl-2-(pentan-3-yl)-3-phenylpyrimido[4,5-b]quinoline-4,5(3H,10H)-dione], in that order: 200% and 11.7 µM.
For `Cn1c2ccccc2c(=O)c2c(=O)n(-c3ccccc3)c(C3CCCC3)nc21` [Example 1.10, 2-cyclopentyl-10-methyl-3-phenylpyrimido[4,5-b]quinoline-4,5(3H,10H)-dione], in that order: 277% and 11 µM.
